Series [1] has as its system DUSP6 mRNA in NCI-H2122 xenograft tumors. In words: In vivo PD by DUSP6 qPCR. Also on record: species or system mouse. As to the method: (§1) Tumor-bearing animals were randomized and assigned into groups (n = 1–10/group). The vehicle at 10 mL/kg or RMC-6236 at indicated doses was administered via oral gavage daily, and animals were treated for 28 days, or up to 90 days if PFS was being assessed. […] For single-dose PKPD study, mice were randomized and assigned into groups (n = 3/dose/time point). A single dose of RMC-6236 was administered orally at either 3, 10, or 25 mg/kg. Blood and tissues, including the tumor, brain, colon, ear skin, and muscle, were harvested at indicated time points. Whole blood was collected in K2EDTA Microtainer tubes, incubated for 5 minutes, and snap-frozen in liquid nitrogen. The tissue was either fixed in 10% formalin or snap-frozen in liquid nitrogen for further analysis.
RNA was extracted from at least 20 mg of tissue using an RNeasy Mini Kit (Qiagen, 74104) and a High-Throughput Tissue grinder following the manufacturer's protocol. Reverse transcription was carried out using High-Capacity cDNA Reverse Transcription Kit (ABI, 4368814) according to the manufacturer's protocol. The cDNA product was used for qPCR analysis using TaqMan Gene-Expression Master Mix (ABI, 4369016). TaqMan primer probes specific to DUSP6 (human—Hs00737962_m1, murine—Mm00518185_m1, FAM-MGB) and 18S (RNA18S1; human—Hs99999901_s1, murine—Mm03928990_g1, FAM-MGB, used as an internal control gene) were used to detect the levels from each sample in duplicates using a 10 µL final reaction volume in a 384-well clear optical reaction plate. For qPCR, Ct values of DUSP6 and 18S were obtained for analysis. DUSP6 Ct value was normalized to 18S, and then the mean relative mRNA expression levels of each group were normalized to the vehicle control group. Values were plotted as relative change in mRNA expression compared with vehicle. Means ± SEM were shown.

For series [2], the system named is DUSP6 mRNA in human tumors. In words: PK/PD model scaled to humans. The source says: Tumor growth was modeled using the approach previously described by Simeoni and colleagues ([45]). As detailed previously, tumor volume data were collected from mice bearing either NCI-H441 or Capan-2 xenograft tumors in 28-day efficacy studies (Supplementary Table S9). Estimated intrinsic tumor growth parameters include initial tumor volume, W0, which was set to the observed initial tumor volume, and the exponential and linear growth rates constants, λ0 and λ1, which were estimated from vehicle-treated animal tumor growth. Drug-specific parameters include a measure of drug potency, k2, and a transfer rate constant, k1, which describes cell death kinetics. A tumor stasis concentration threshold (CT) was calculated as λ0/k2 and converted to a human equivalent by adjusting for species differences in blood-plasma partitioning and plasma protein binding as discussed in Supplementary Methods. Human PK parameters were predicted via multispecies allometric scaling or assigned as the preclinical average and used to simulate mean steady-state human exposure at various dose levels.
The mouse PK/PD model was scaled to humans by incorporating human-specific plasma protein binding, blood–plasma partitioning, and estimated human blood PK parameters. The tumor partitioning rate constants were held constant from the mouse model under the assumption that RMC-6236 will partition similarly from free plasma into human-derived xenografts or clinical tumor tissue. Similarly, parameters governing DUSP6 expression were kept the same and assumed to reflect a similarly sensitive tumor in humans. Human simulations were conducted for multiple clinical dose levels using mean PK parameters and assuming an average body weight of 70 kg.

Series [3] relates to KRAS^G12V and KRAS^G12D xenograft models (NSCLC, PDAC, colorectal cancer). In words: Mouse clinical trial (MCT), genotype subsets. The class given is in vivo. On the procedure: To generate subcutaneous CDX, each mouse was inoculated at the right flank with tumor cells (2 × 10^6 − 1 × 10^7) in 100 to 200 µL of media/PBS Supplemented with Matrigel. Treatments were initiated when average tumor volume reached 130 to 200 mm^3 for tumor growth evaluation and 350 to 650 mm^3 for single-dose pharmacokinetic/pharmacodynamic (PK/PD). Tumor diameter was measured in two dimensions using a digital caliper, and the tumor volume in mm^3 was calculated using the formula: Volume = ((width)^2 × length)/2. Mice in the study were weighed and tumors were measured twice weekly.
The human primary cancer PDX models were generated using fresh tumor fragments obtained from the hospital with written informed consent from patients in accordance with protocols approved by the Hospital's Institutional Ethical Committee. Tumor fragments were subcutaneously serial passaged in immunodeficient mice and cryopreserved for further use. Recovered tumor fragments were implanted into the right flanks of immunodeficient mice; treatment started when the average tumor volume reached 150 to 350 mm^3.
as §1
In tumor volume plots, the average tumor volume of each group was plotted over the course after implantation (except for PDX models, where the x-axis started on the first day of treatment). Control and RMC-6236 groups were compared by two-way repeated-measures ANOVA on the last measurement day of the control group. Percentage change in body weight for each animal on a given day was determined as [(body weight on test article administration end date/body weight on test article administration start date) −1] × 100. The percentage mean tumor volume change from baseline was graphed in the waterfall plots. The mRECIST score was determined based on % mean tumor volume change, mCR is more than 80% regression, mPR is between 30% and 80% regression, mSD is between 30% growth and 30% regression, mPD is more than 30% growth. Progression is defined as tumor volume doubling from baseline and represented with Kaplan–Meier plots. […]

The mark [4] stands for this setting: 21 KRAS^G12V models, 25 mg/kg daily.

We go through one compound from PMC11149917, “Translational and Therapeutic Evaluation of RAS-GTP Inhibition by RMC-6236 in RAS-Driven Cancers” (Cancer Discovery, 2024).

On to `CCn1c(-c2cc(N3CCN(C)CC3)cnc2[C@H](C)OC)c2c3cc(ccc31)-c1csc(n1)C[C@H](NC(=O)[C@H]1C[C@@H]1C)C(=O)N1CCC[C@H](N1)C(=O)OCC(C)(C)C2` [RMC-6236], for which the “DUSP6 mRNA(% normalized to control)” value in series [1] (NCI-H2122 (25 mg/kg x 7d), 1h) was 0.8%; in series [1] (NCI-H2122 (25 mg/kg x 7d), 8h) it was 0.337%; in series [1] (NCI-H2122 (25 mg/kg x 7d), 24h) it was 0.8%; in series [1] (NCI-H2122 (25 mg/kg x 7d), 48h) it was 6.3%; in series [1] (NCI-H2122 (25 mg/kg), 1h), 20.6%; in series [1] (NCI-H2122 (25 mg/kg), 8h), 0.187%. In addition, the “DUSP6 mRNA(% normalized to control)” value in series [1] (NCI-H2122 (25 mg/kg), 24h) was 3.4%; in series [1] (NCI-H2122 (25 mg/kg), 48h), 10.6%. In addition, the Ka in series [2] (Human Predictions) was 2 h⁻¹. The V/F in series [2] (Human Predictions) is recorded as 10.83 L/kg. The “estimated maximal DUSP6 suppression in human tumors” value in series [2] (daily dose of approximately 100 mg, steady state, transient) was no less than 90%. In addition, the “estimated mean DUSP6 suppression in human tumors” value in series [2] (daily dose of approximately 300 mg, across the dosing interval at steady state) was no less than 90%. The “Cox Proportional Hazard Ratio, PFS of KRAS^G12V vs KRAS^G12D models on RMC-6236” value in series [3] (25 mg/kg daily up to 90 days, 95% interval 0.069–0.454) is on record as 0.178. The “disease control rate (DCR), mRECIST” value in series [3] (setting [4]) was determined as 95%. Besides, the “overall response rate (ORR), mRECIST” value in series [3] (setting [4]) came out at 71%. In addition, the “models with tumor relapse on long-term dosing (more than 60 days)” value in series [3] (models mPR or mCR at response calling date, NSCLC, PDAC, colorectal cancer) was 5 of 20.
